Tested on: anesthetized guinea-pig
Assay: Cardiovascular effects in the anaesthetized guinea-pig
Type: in vivo
Procedure: Female guinea-pigs were anesthetized with sodium pentobarbital (66 mg/kg i.p.) followed by a continuous i.v. infusion of 6 mg/h of sodium pentobarbital and prepared for measurements of the surface electrocardiogram (ECG), heart rate and mean arterial blood pressure (see De Clerck et al, Fundam. Clin. Pharm.; 2002; 16: 125-140). Compound (−)-17 was dissolved in 20% hydroxypropyl-cyclodextrin with NaOH, HCl and mannitol in pyrogen-free water and administered intravenously (0.5 ml/kg) in increasing doses (0.16, 0.32, 0.64, 1.25, 2.5 and 5 mg/kg) over a period of 5 min at 15-min intervals. Plasma concentrations of Compound (−)-17 were measured at the end of each infusion. Corresponding volumes of vehicle were administered according to the same protocol in a second group of animals.

[1] = guinea pig i.v. 0.64 mg/kg @ 2′
[2] = guinea pig i.v. 0.64 mg/kg @ 5′
[3] = guinea pig i.v. 0.64 mg/kg @ 15′
[4] = guinea pig i.v. 1.25 mg/kg @ 2′
[5] = guinea pig i.v. 1.25 mg/kg @ 5′
[6] = guinea pig i.v. 1.25 mg/kg @ 15′
[7] = guinea pig i.v. 2.5 mg/kg @ 15′

Compound: COc1cc(N)c(Cl)cc1C(=O)NC1CCN(CCCOc2ccc(F)cc2)CC1(F)F (single isomer, unassigned) [Compound (−)-17, 4-amino-5-chloro-N-{3,3-difluoro-1-[3-(4-fluorophenoxy)-propyl]-piperidin-4-yl}-2-methoxybenzamide]
- QRS, percentage change relative to baseline [1]: 0%
- QT, percentage change relative to baseline [1]: 7%
- QTc B, percentage change relative to baseline [1]: 4%
- HR, percentage change relative to baseline [2]: −2%
- MBP, percentage change relative to baseline [2]: 13%
- PQ, percentage change relative to baseline [2]: 5%
- QRS, percentage change relative to baseline [2]: −5%
- QT, percentage change relative to baseline [2]: 5%
- QTc B, percentage change relative to baseline [2]: 2%
- HR, percentage change relative to baseline [3]: −5%
- MBP, percentage change relative to baseline [3]: −5%
- PQ, percentage change relative to baseline [3]: 4%
- QRS, percentage change relative to baseline [3]: −3%
- QT, percentage change relative to baseline [3]: 8%
- QTc B, percentage change relative to baseline [3]: 4%
- HR, percentage change relative to baseline [4]: −7%
- MBP, percentage change relative to baseline [4]: 4%
- PQ, percentage change relative to baseline [4]: 5%
- QRS, percentage change relative to baseline [4]: −2%
- QT, percentage change relative to baseline [4]: 8%
- QTc B, percentage change relative to baseline [4]: 4%
- HR, percentage change relative to baseline [5]: −7%
- MBP, percentage change relative to baseline [5]: 15%
- PQ, percentage change relative to baseline [5]: 6%
- QRS, percentage change relative to baseline [5]: 0%
- QT, percentage change relative to baseline [5]: 6%
- QTc B, percentage change relative to baseline [5]: 2%
- HR, percentage change relative to baseline [6]: 0%
- MBP, percentage change relative to baseline [6]: 9%
- PQ, percentage change relative to baseline [6]: 6%
- QRS, percentage change relative to baseline [6]: −3%
- QT, percentage change relative to baseline [6]: 2%
- QTc B, percentage change relative to baseline [6]: 3%
- HR, percentage change relative to baseline (guinea pig i.v. 2.5 mg/kg @ 2′): −5%
- PQ, percentage change relative to baseline (guinea pig i.v. 2.5 mg/kg @ 2′): 7%
- QRS, percentage change relative to baseline (guinea pig i.v. 2.5 mg/kg @ 2′): −3%
- QT, percentage change relative to baseline (guinea pig i.v. 2.5 mg/kg @ 2′): 6%
- QTc B, percentage change relative to baseline (guinea pig i.v. 2.5 mg/kg @ 2′): 4%
- HR, percentage change relative to baseline (guinea pig i.v. 2.5 mg/kg @ 5′): −6%
- MBP, percentage change relative to baseline (guinea pig i.v. 2.5 mg/kg @ 5′): 21%
- PQ, percentage change relative to baseline (guinea pig i.v. 2.5 mg/kg @ 5′): 7%
- QRS, percentage change relative to baseline (guinea pig i.v. 2.5 mg/kg @ 5′): −3%
- QT, percentage change relative to baseline (guinea pig i.v. 2.5 mg/kg @ 5′): 6%
- QTc B, percentage change relative to baseline (guinea pig i.v. 2.5 mg/kg @ 5′): 3%
- HR, percentage change relative to baseline [7]: −4%
- MBP, percentage change relative to baseline [7]: 8%
- PQ, percentage change relative to baseline [7]: 8%
- QRS, percentage change relative to baseline [7]: 0%
- QT, percentage change relative to baseline [7]: 6%
- QTc B, percentage change relative to baseline [7]: 5%
- HR, percentage change relative to baseline (guinea pig i.v. 5 mg/kg @ 2′): −3%
- PQ, percentage change relative to baseline (guinea pig i.v. 5 mg/kg @ 2′): 6%
- QRS, percentage change relative to baseline (guinea pig i.v. 5 mg/kg @ 2′): −2%
- QT, percentage change relative to baseline (guinea pig i.v. 5 mg/kg @ 2′): 7%
- QTc B, percentage change relative to baseline (guinea pig i.v. 5 mg/kg @ 2′): 5%
- HR, percentage change relative to baseline (guinea pig i.v. 5 mg/kg @ 5′): −3%
- PQ, percentage change relative to baseline (guinea pig i.v. 5 mg/kg @ 5′): 6%
- QRS, percentage change relative to baseline (guinea pig i.v. 5 mg/kg @ 5′): 0%
- QT, percentage change relative to baseline (guinea pig i.v. 5 mg/kg @ 5′): 3%
- QTc B, percentage change relative to baseline (guinea pig i.v. 5 mg/kg @ 5′): 2%
- effect on heart rate, duration of PQ, QRS, QT and QTcB intervals, ECG morphology (guinea pig, 0.16 up to 5 mg/kg i.v., relative to vehicle): no relevant effect
- mean arterial blood pressure (guinea pig, from 2.5 mg/kg i.v. onwards): started to increase

Source: patent US9139523B2, “5-HT2B receptor antagonists” (Janssen Pharmaceutica, NV, priority 2010, dated 2015)
